From article PMC6895048, “4,5-Disubstituted 1,2,3-triazoles: Effective Inhibition of Indoleamine 2,3-Dioxygenase 1 Enzyme Regulates T cell Activity and Mitigates Tumor Growth” (Scientific Reports, 2019)
Several values for one entry are separate records, joined by “and”; a condition that tells them apart may be missing. Identical values can stand only once.

How the values were obtained:
[1] = system: CD8+ T cells; assay: T cell activity in breast tumor micro-environment (flow cytometry); assay type: cell-based, human; conditions: 50 μM; for regulation of CD8+ T cells in tumor micro-environment: 20% MDA-MB-231 conditioned medium, 48 hours; for regulation of effector memory CD8+ T cells in tumor micro-environment: CCR7lowCD45RAlow phenotype
Method: We designed this study to evaluate the effects of IDO1 inhibition on cytotoxic T cells present in the breast tumor micro-environment. To mimic breast tumor micro-environment, we used 20% conditioned medium of human metastatic breast cancer cell line MDA-MB-231 with fresh RPMI and 10% FBS. Freshly isolated PBL cells were stimulated with PMA and ionomycin prior to culture in 20% conditioned medium and compounds at selected concentrations. Drug treatment was done for 48 hours followed by immunophenotyping by flow cytometry. For cell proliferation experiments freshly isolated PBLs were cultured in RPMI with 10% FBS and inhibitors for 48 hours. After that the cells were counted with hemocytometer. All the experiments were repeated thrice before analyzing data. The concentration of the compounds was 50 μM for all the T cell activity studies. All the T cell culture related experiments were conducted in the designated biosafety level facility available at the University of Calcutta.
Peripheral blood lymphocyte was isolated from freshly isolated blood samples of healthy volunteers in a previously described protocol. Briefly, blood was diluted with equal volume of sterile PBS and allowed in density gradient centrifugation over histopaque. Isolated PBLs were washed and cultured in RPMI medium with 10% FBS. Peripheral blood lymphocytes (PBLs) were isolated from fresh blood of healthy volunteers and cultured in RPMI medium with or without compound at selected concentration for 48 hours. Treatment of the compound uplifted cell proliferation. To evaluate whether 4,5-disubstituted 1,2,3-triazole regulate T cell activity, PBL was isolated and cultured at 20% conditioned medium of human metastatic breast cancer cell line MDA-MB-231. To perform this experiment PBL was isolated from three healthy volunteers and three independent experiments were performed. All the volunteers signed informed consent form[45],[49].
The T cells were activated according to standardized protocol published elsewhere. 100 ng/mL PMA and 1 μg/mL ionomycin were used to stimulate the T cells for 2 hrs. PBLs freshly cultured in RPMI with 10% FBS was added in the culture plate at 2 × 10^5 cells/ well and cultured at 37 °C with 5% CO2 for the duration of activation.
After treatment for given period of time the lymphocytes were analyzed for alteration of protein expression by flow cytometry according to previously published protocols. Briefly the cells were pelleted down resuspended in cell staining buffer. After cell counting cells were stained against PE-CD8 (Miltenyi Bioteh.), PerCP-Cy 5.5-CCR-7 (Miltenyi Bioteh.), APC-CD45RA (Miltenyi Bioteh.), VioBright-FITC-PD-1 (Miltenyi Bioteh.) antibodies as per the manufacturer recommended concentration and incubated in ice for given period of time. Post incubation, the cells were washed, suspended in cell staining buffer before data was acquired using FACS-Verse flow cytometer. The results were analyzed with FlowJo software (v X.0.7). The experiments were repeated thrice prior data analysis.

[2] = Serum binding by Trp-fluorescence quenching; assay type: in vitro ADME, human; conditions: qualitative; compared with compound 4i
Method: Tryptophan fluorescence measurements of the human serum were performed in the presence of compounds on a Fluoromax-4 spectrofluorometer at room temperature. For fluorescence measurements, 30 µL of 100% human serum and varying concentrations (0–220 µM) of compounds were incubated in 10 mM PBS buffer, pH 7.4. The solution was excited at 290 nm, and emission spectra were recorded from 300 to 560 nm. The resulting tryptophan emission spectra for each concentration of the compounds were plotted.

[3] = biological target: T1, purified human TDO enzyme (Homo sapiens, UniProt P48775); assay: TDO inhibition assay by the spectrometric method; assay type: biochemical; conditions: for inhibitory efficacies against TDO enzyme: both spectrophotometric and kynurenine assay
T1 construct: 6xHis (N); made in house; host or cells: Escherichia coli BL21 (DE3) (pET 28a vector)
Method: Both IDO1 and TDO inhibition assays were performed according to the reported procedures[26]–[30],[50],[51]. The solubility of the compounds in water was either moderate or poor. […] In the assay system, the minimum and maximum amount of DMSO was 0.02% and 2%, respectively. The standard reaction mixture (500 μL) containing KPB (100 mM, pH 6.5 for IDO1 enzyme and 50 mM, pH 8.0 for TDO enzyme), sodium ascorbate (20 mM), methylene blue (10 µM), catalase (240 nM, from bovine liver), L-Trp (150 µM), purified enzyme (40 nM for IDO1 and 25 nM for TDO), DMSO (0.05%, v/v), Triton-X 100 (0.01%, v/v) and inhibitors was incubated at 37 °C for 1 hour. The concentration of the inhibitors was varied from 100 µM to 32 nM by serial dilution technique. Then, the reaction was quenched with 100 µL of 30% (w/v) trichloroacetic acid and was incubated for further 15 minutes at 65 °C. After that, 2% (w/v) pDMAB was used to quantify the amount of kynurenine formation. The absorbance of the reaction mixture was recorded by UV-Vis spectrophotometer at 480 nm. The Km = 59.76 µM and Kcat = 6.18 sec^−1.

[4] = system: EAC solid tumor; assay: EAC solid tumor model in vivo; design: species or system female Swiss albino mice; conditions: for tumor growth inhibition (TGI): 5 mg/kg body weight, intravenously at alternate days, female Swiss albino mice; for CD8+ T cell population in vivo solid tumors: flow cytometry of tumor tissue post sacrifice
Method: Female Swiss albino mice of age 6 weeks (weight = 20 gm) were selected for the experiments. Animals were housed in animal facility room, Department of Zoology, University of Calcutta at 25 ± 2 °C, relative humidity of nearly 45 ± 5% with alternative 12 hours day/ night cycle with access of food and water. All the experiments were carried out as per guideline of the Committee for the Purpose of Control and Supervision of Experimental Animals (CPCSEA), Government of India (Registration No: 885/GO/Re/S/05/CPCSEA) and approved by the Institutional animal ethical committee (IAEC), University of Calcutta.
Ehrlich ascites carcinoma (EAC) cells were maintained in the ascetic form in female Swiss albino mice by intraperitoneal transplantation every 10th day on each mice. The ascetic fluid was drawn on 7th day on implantation according to previously described protocol. Isolated cells were diluted in sterile PBS. 2 × 10^6 cells were then implanted on thigh muscle of all the animals selected for experiment.
Female Swiss albino mice were divided into four groups (n = 6 each group). Post inoculation of the cells in thigh muscle on day 0 mice in their respective group was allowed to treat for 5 days on every alternate day at treatment of 5 mg/ kg body weight described below. All the mice were sacrificed on day 10.
Tumor tissues post sacrifice were digested in collagenase IV medium for 2 hours. The tissues were passed through wire mesh and single-cell strainer. Then the cells were washed in PBS, and immunophenotyping was performed, and cells were stained against APC-CD8 for finding infiltrated CD8 T cell populations by flow cytometry analysis.

T1 sequence (P48775 whole entry): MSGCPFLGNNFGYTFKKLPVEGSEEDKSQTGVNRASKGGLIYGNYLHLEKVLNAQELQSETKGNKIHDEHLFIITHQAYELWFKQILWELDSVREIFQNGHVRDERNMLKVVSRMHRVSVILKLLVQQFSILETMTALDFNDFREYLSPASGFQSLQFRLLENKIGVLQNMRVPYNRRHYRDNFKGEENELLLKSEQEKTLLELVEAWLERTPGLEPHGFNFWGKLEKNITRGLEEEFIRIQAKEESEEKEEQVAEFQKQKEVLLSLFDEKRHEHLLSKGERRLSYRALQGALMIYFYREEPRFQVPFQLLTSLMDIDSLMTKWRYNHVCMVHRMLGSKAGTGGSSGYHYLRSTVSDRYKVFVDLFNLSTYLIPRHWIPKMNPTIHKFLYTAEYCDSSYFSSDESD

Row | interaction with human serum proteins (Trp-fluorescence quenching) [2] | inhibitory efficacies against TDO enzyme [3] | inhibition at 0.032 µM ([3]; spectrophotometric, 32 nM) [%] | inhibition at 0.16 µM ([3]; spectrophotometric, 160 nM) [%] | inhibition at 0.8 µM ([3]; spectrophotometric, 800 nM) [%] | inhibition at 4 µM ([3]; spectrophotometric, 4 µM) [%] | inhibition at 20 µM ([3]; spectrophotometric, 20 µM) [%] | inhibition at 100 µM ([3]; spectrophotometric, 100 µM) [%] | % of Enzyme inhibition (TDO) ([3]; spectrophotometric, 32 nM) [%] | % of Enzyme inhibition (TDO) ([3]; spectrophotometric, 160 nM) [%] | % of Enzyme inhibition (TDO) ([3]; spectrophotometric, 800 nM) [%] | % of Enzyme inhibition (TDO) ([3]; spectrophotometric, 4 µM) [%] | % of Enzyme inhibition (TDO) ([3]; spectrophotometric, 20 µM) [%] | % of Enzyme inhibition (TDO) ([3]; spectrophotometric, 100 µM) [%] | Compound | PD-1 expression on CD8+ T cells in tumor micro-environment [1] | regulation of CD8+ T cells in tumor micro-environment [1] | regulation of effector memory CD8+ T cells in tumor micro-environment [1] | tumor growth inhibition (TGI) [4] | CD8+ T cell population in vivo solid tumors [4]
1 | more strongly | moderate to poor | 3 | 6 | 16 | 32 | 45 | 50 | – | – | – | – | – | – | NS(=O)(=O)NCCNC(=O)c1n[nH]nc1-c1ccc(F)c(F)c1 [Compound 4k] | Down-regulation | Up-regulation | Up-regulation | 79–96% | induces CD8+ T cell population
2 | more strongly | moderate to poor | – | – | – | – | – | – | 2 | 9 | 12 | 15 | 23 | 28 | CCOC(=O)c1n[nH]nc1-c1ccc(F)c(F)c1 [Compound 2i] | Down-regulation | Up-regulation | Up-regulation | – | –
3 | – | moderate to poor | – | – | – | – | – | – | 4 | 7 | 14 | 24 | 42 | 55 | O=C(N/C(Cc1ccc(O)cc1)=N\O)c1n[nH]nc1-c1ccc(F)c(F)c1 [Compound 4i] | Down-regulation | Up-regulation | Up-regulation | 79–96% | induces CD8+ T cell population
4 | more strongly | moderate to poor | – | – | – | – | – | – | 5 | 11 | 14 | 26 | 33 | 49 | NC(=O)c1n[nH]nc1-c1ccc(F)c(F)c1 [Compound 3i] | Down-regulation | Up-regulation | Up-regulation | 79–96% and 96% | induces CD8+ T cell population
